Measurements: US20250034151A1, “WEE1 INHIBITOR, PREPARATION THEREFOR, AND USE THEREOF” (JIANGSU TASLY DIYI PHARMACEUTICAL CO., LTD., priority 2022, published 2025)
Where two headings read alike, the source gives them in different places.

Assays:
Wee1 protein = target: T1, Wee1 protein (Homo sapiens, UniProt P30291); assay: Binding of compound to Wee1 protein and Tracer 178 by TR-FRET (Wee1 kinase inhibitory activity); settings: 15 nM WEE1, 50 nM Tracer 178, read-out: IC50 (inhibitory activity against Wee1 kinase)
T1 construct: purchased Thermo Fisher PR7373A
T1 sequence (P30291 whole entry): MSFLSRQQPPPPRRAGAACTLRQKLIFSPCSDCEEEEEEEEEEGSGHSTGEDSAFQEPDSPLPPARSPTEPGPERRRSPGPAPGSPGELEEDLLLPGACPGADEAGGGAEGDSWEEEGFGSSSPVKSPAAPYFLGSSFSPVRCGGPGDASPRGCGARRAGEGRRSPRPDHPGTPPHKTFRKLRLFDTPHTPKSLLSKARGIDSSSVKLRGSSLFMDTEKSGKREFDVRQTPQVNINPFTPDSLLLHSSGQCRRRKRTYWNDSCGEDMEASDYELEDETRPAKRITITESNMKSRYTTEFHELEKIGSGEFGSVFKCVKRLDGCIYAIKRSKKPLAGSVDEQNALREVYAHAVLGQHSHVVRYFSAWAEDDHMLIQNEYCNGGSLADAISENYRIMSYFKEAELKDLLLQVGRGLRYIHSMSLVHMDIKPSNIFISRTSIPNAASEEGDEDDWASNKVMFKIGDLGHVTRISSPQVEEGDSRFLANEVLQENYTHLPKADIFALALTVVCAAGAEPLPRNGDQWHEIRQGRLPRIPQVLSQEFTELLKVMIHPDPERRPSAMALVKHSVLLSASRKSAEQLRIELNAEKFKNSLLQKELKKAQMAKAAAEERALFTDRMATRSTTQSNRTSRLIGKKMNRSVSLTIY
Method: First, solutions of the compounds in different concentration gradients were prepared. The compounds were dissolved in DMSO and the compounds were diluted 4 folds with a total of 10 dose points and 2 parallel replicates for each concentration.
The IC50 for inhibition of enzyme activity by the compounds was then calculated using GraphPad Prism 6 and fitted with a log (inhibitor) vs. response-Variable slope mode. The fitting equation was: Y=Bottom+(Top−Bottom)/(1+10^((Log IC50−X)*HillSlope)), wherein Y represents the percentage of residual enzyme activity known and X represents the known concentration of compound after the logarithm.

H1299 cells = assay: Anti-proliferative effect on H1299 cells by Cell Titer-Glo; type: cell-based; settings: 3 days
Method: (§1) Test Example 2: Evaluation of Cell Proliferation Inhibitory Activity
1. Evaluation of the Anti-Proliferative Effect of Compounds on H1299 Cells by the Cell Titer-Glo Method
(§2) Compound solutions of different concentration gradients were prepared. […] The cell growth group without compound was used as a positive control (maximum signal control) and the medium was used as a negative control (minimum signal control), while ensuring that the final level of DMSO in each reaction well was 0.2%. After removing the medium from the 384-well plate, 25 ul of the configured compound at different concentrations was transferred into the well plate and the compound and cells were incubated in the cell incubator at 37° C. with 5% CO2 for 3 days.
(§3) The 384-well plates were removed from the cell incubator and allowed to equilibrate for 1h to room temperature. 25 ul of Cell Titer-Glo assay was added to each well, lysed on a shaker for 2 min and then read out (Luminescence) using a BMG PHERAStar after 10 min incubation. Calculate the inhibition rate from the luminescence signal: first calculate the average of the positive control (maximum signal control) and the negative control (minimum signal control).
(§4) was used to calculate the rate of inhibition of the cells by different concentrations of the compounds. The IC50 of the compound on cell activity inhibition was calculated by fitting a log(inhibitor) vs. response-Variable slope model to GraphPad Prism 6. The fitted equation was: Y=Bottom+(Top−Bottom)/(1+10^((Log IC50−X)*HillSlope)), where Y represents the rate of inhibition and X represents the concentration of the known compound after Log.
(§5) The results of the in vitro anti-cell proliferation assays of H1299 and MIA Paca-2 for the example compounds according to the method described above are shown in Table 2, wherein the IC50 of each compound was determined and classified according to the description as follows: […]

[1] = Liver microsomes in vitro stability (mouse); type: in vitro ADME; settings: read-out: T1/2/min
Method: (§6) 1. Preparation of Working Solution:
(§7) Microsomes were taken out from the −80° C. refrigerator, rapidly melted in a 37° C. water bath and placed on ice until ready to use. The test article was diluted with DMSO to prepare a 10 mM stock solution, and then diluted with acetonitrile to a 0.5 mM secondary stock solution. […] NADPH was diluted with Buffer C to a working solution of 6 mM for the starter solution. An acetonitrile solution containing an internal standard was prepared as the precipitant, and Verapamil-HCl was chosen as the internal standard at a concentration of 4 ng/ml.
(§8) 2. Experimental Procedure:
(§9) A round-bottom well plate was taken, noted as the reaction plate, and the prepared working solution for each compound was dispensed into the well plate according to the number of replicates and time points (0 h samples were also added to the reaction plate), 30 μL/well; the plate was incubated at 37° C. for 10 min. A separate plate with pointed bottom wells, noted as a precipitation plate, was added with 135 μL precipitant per well; 0 h samples were transferred to the plate after 10 min incubation and 15 μL of starter solution was added; the plate was placed on ice before centrifugation.
(§10) The diluted starter solution was added in sufficient quantity to the dispensing plate to facilitate the multichannel pipette aspiration operation.
(§11) The reaction was carried out on a warm incubation shaker and 15 μL of starter solution/sample is added to the plate using a multichannel pipette. The reaction was mixed with a slight shake to initiate the reaction, which was accurately timed and recorded using a timer. In general, samples with shorter reaction times are initiated late and vice versa early, allowing sufficient time for multiple plate manipulation to terminate the reaction. For example, as for the four experiments of 5, 15, 30, and 60 min, the 60 min experiment was started first, and the 5 min experiment was started later, so as to leave sufficient time for the 5 min group.
(§12) After the reaction time had elapsed, all the solution in the plate was aspirated using the multichannel pipette and added to the precipitation plate to terminate the reaction at that point in time. After all reactions had been terminated, the plates were shaken for ten minutes on a plate shaker at 600 rpm to precipitate the protein. The plate was centrifuged at 4° C. for 15 minutes at maximum rpm. 80 μL of supernatant was taken, 320 μL of pure water was added and mixed for LC-MS analysis.

[2] = Liver microsomes in vitro stability (human); type: in vitro ADME; settings: read-out: T1/2/min (H)
Method: as §6, §7, §8, §9, §10, §11, §12

MIA PaCa2 cells = assay: Anti-proliferative effect on MIA PaCa2 cells by Cell Titer-Glo; type: cell-based; settings: Homo sapiens, MIA PaCa-2, 72 h, 3 days, read-out: MIA PaCa 2 (IC50, inhibition of proliferation in vitro)
Method: as §1
2. Evaluation of the Anti-Proliferative Effect of Compounds on MIA PaCa2 Cells by the Cell Titer-Glo Method
as §2
as §3, with “1 h” for “1h”
as §4, with “Y=Bottom+(Top-Bottom)/(1+10^((Log” for “Y=Bottom+(Top−Bottom)/(1+10^((Log”, “wherein” for “where”
as §5

[3] = Membrane permeability study (Caco-2); type: in vitro ADME; settings: human; for efflux ratio at 90 min, 10 µM: Caco-2, pH 7.4; for Papp A→B at 90 min, 10 µM / Papp B→A at 90 min, 10 µM: pH 7.4, Caco-2, 10 μM; for Papp A→B at 90 min, 10 µM: apical to basolateral; for Papp B→A at 90 min, 10 µM: basolateral to apical
Method: Caco-2 cells were purchased from the […] (Rockville, MD). The cell culture medium was modified Eagle's medium (MEM) containing 10% inactivated fetal bovine serum and 1% non-essential amino acids.
The cells were incubated for 21-28 days after inoculation for transport experiments and the apparent permeability (Papp) of Lucifer Yellow was used to characterize and verify the compactness of the cell monolayer. […] A 10 μM working solution of the compound to be tested was added to the apical side and basolateral side of Caco-2 and incubated at 37° C. for 90 min. After the incubation, dilute the samples on the apical side and basolateral side, and the concentrations of compounds on the apical and basolateral sides were detected by LC-MS/MS, and the concentrations of the compounds were quantified by standard curve.

[4] = Plasma protein binding (PPB), equilibrium dialysis; type: in vitro ADME; settings: mouse plasma, 5 h dialysis
Description: 1. Experimental Procedure
2. Data Processing and Parameter Calculation

[5] = Pharmacokinetics on single dose in mice (intravenous and oral); type: in vivo, ICR mice; settings: male, ICR, mouse, plasma, Oral, 10 mg/kg
Method: 1. Experimental Aim: The present experiment aimed to obtain the pharmacokinetic profile of the subject compounds in ICR mice (both intravenous and oral) 3.1.2 Test System Species: SPF grade male ICR mice Body weight/weekly age: about 30 g 4. […] 4.2 Subjects Given (Route) Intravenous: 1 mg/kg in a volume of 5 mL/kg Gavage: 10 mg/kg in a volume of 10 mL/kg Ultrasound for 5 min before administration 4.3 Subject Preparation (Concentration) Intravenous: 0.2 mg/mL Gavage: 1 mg/mL Fast overnight before administration and feed four hours after administration. […] The blood samples were stored in a refrigerator at or below −20° C. for LC-MS/MS analysis. […] LC-MS/MS Analytical Detection Used 5. Data Processing The samples were detected for drug concentration at each time point by LC-MS/MS. Pharmacokinetic parameters terminal elimination half-life (t1/2), area under the curve (AUC), apparent volume of distribution (Vd), clearance (CL), mean residence time (MRT), and Cmax were calculated using the non-compartmental model of Phoenix WinNonlin 5.2. Bioavailability (F %) was directly from serum concentration results. Mean±standard deviation (X±SD) was used for blood concentration and pharmacokinetic parameters, etc. Specific testing and analytical methods were specified in the form of protocol revisions.

[6] = Homo sapiens, NCI-H1299, 72 h, read-out: H1299 (IC50, inhibition of proliferation in vitro)

| SMILES | IC50 (Wee1 protein) [nM] | IC50 (H1299 cells; [6]) [nM] | half-life at 1 µM [1] [min] | half-life at 1 µM [2] [min] | IC50 (MIA PaCa2 cells) [nM] | efflux ratio at 90 min, 10 µM [3] | Papp A→B at 90 min, 10 µM [3] [×10⁻⁶ cm/s] | Papp B→A at 90 min, 10 µM [3] [×10⁻⁶ cm/s] | fraction unbound at 5 h, 1 µM [4] | AUC(0-t) [5] [ng·h/mL] | Cmax [5] [ng/mL] | MRT [5] [min] | half-life [5] [min] | IC50 (H1299 cells; listed as Compound53, read-out: H1299 (IC50, inhibition of proliferation in vitro)) [nM] |
| --- | --- | --- | --- | --- | --- | --- | --- | --- | --- | --- | --- | --- | --- | --- |
| C=CCn1c(=O)c2cnc(Nc3ccc(OC4CN5CCC4CC5)cc3)nc2n1-c1cccc(C(C)(C)O)n1 (stereo not drawn) [Compound 4] | < 5 | 1000 to 2000 | 10.1 | 22.2 | – | – | – | – | – | – | – | – | – | – |
| C=CCn1c(=O)c2cnc(Nc3ccc(CC4C(=O)C5CCN4CC5)cc3)nc2n1-c1cccc(N=S(C)(C)=O)n1 (stereo not drawn) [Compound 6] | < 5 | 100 to 1000 | 5.72 | 5.16 | – | – | – | – | – | – | – | – | – | – |
| C=CCn1c(=O)c2cnc(Nc3ccc(OCC)c(CC4C(=O)C5CCN4CC5)c3)nc2n1-c1cccc(N=S(C)(C)=O)n1 (stereo not drawn) [Compound 9] | < 5 | 1000 to 2000 | 0.78 | 2.82 | – | – | – | – | – | – | – | – | – | – |
| C=CCn1c(=O)c2cnc(Nc3cccc(CC4C(=O)C5CCN4CC5)c3)nc2n1-c1cccc(N=S(C)(C)=O)n1 (stereo not drawn) [Compound 10] | < 5 | 100 to 1000 | 1.34 | 8.31 | – | – | – | – | – | – | – | – | – | – |
| C=CCn1c(=O)c2cnc(Nc3ccc(N4C[C@@H]5C[C@H]4CN5C)c(C)c3)nc2n1-c1cccc(C(C)(C)O)n1 [Compound 12] | 5 to 10 | 100 to 1000 | 31.5 | – | 100 to 1000 | 11.8 | 2.84 | 33.5 | – | – | – | – | – | – |
| C=CCn1c(=O)c2cnc(Nc3ccc(N4CC5CC(CN(CC(F)(F)F)C5)C4)cc3)nc2n1-c1cccc(C(C)(C)O)n1 [Compound 33] | 10 to 100 | 1000 to 2000 | – | – | 2000 to 5000 | 0.83 | 9.12 | 7.56 | – | – | – | – | – | – |
| C=CCn1c(=O)c2cnc(Nc3ccc(N4CC5CC(C4)N5C(C)C)cc3)nc2n1-c1cccc(C(C)(C)O)n1 [Compound 42] | 10 to 100 | 100 to 1000 | – | – | 100 to 1000 | 7.99 | 6.22 | 49.7 | – | – | – | – | – | – |
| C=CCn1c(=O)c2cnc(Nc3ccc(N4CCOC5(CCCN(C)C5)C4)cc3)nc2n1-c1cccc(C(C)(C)O)n1 (stereo not drawn) [Compound 46] | 10 to 100 | 100 to 1000 | 13.6 | 16.8 | 100 to 1000 | – | – | – | 0.179 | – | – | – | – | – |
| C=CCn1c(=O)c2cnc(Nc3ccc(N4CC5CC(C4)N5CCF)cc3)nc2n1-c1cccc(C(C)(C)O)n1 [Compound 48] | < 5 | 100 to 1000 | – | – | 100 to 1000 | 2.65 | 13.3 | 35.3 | 0.031 | 482 | 470 | 54 | 38.4 | – |
| C=CCn1c(=O)c2cnc(Nc3ccc(N4CC5CC(C4)N5C4CCC4)cc3)nc2n1-c1cccc(C(C)(C)O)n1 [Compound 49] | < 5 | 100 to 1000 | – | – | 100 to 1000 | – | – | – | 0.042 | 534 | 388 | 68.4 | 61.8 | – |
| C=CCn1c(=O)c2cnc(Nc3ccc(N4CC5CC(C4)N5C)cc3)nc2n1-c1ccc2ccn(CC)c2n1 [Compound 51] | < 5 | 100 to 1000 | 14.7 | 19 | 100 to 1000 | – | – | – | 0.03 | 430 | 290 | 70.8 | 57 | – |
| C=CCn1c(=O)c2cnc(Nc3ccc(N4CC5CC(C4)N5C)cc3)nc2n1-c1ccc2cnn(CC)c2n1 [Compound 53] | 5 to 10 | – | – | – | 2000 to 5000 | – | – | – | 0.035 | 1640 | 800 | 115 | 113 | 100 to 1000 |
